Earlier results in patent publication US12233082B2, “Compositions and methods for multi-use suppression and acquisition of viruses” (priority 2021, dated 2025).

Assays:
[1] = test system: HSV-2
[2] = test system: HSV; conditions: 500 mg valacyclovir; expected for group 2 from previous research
[3] = test system: HIV-1; conditions: 500 mg valacyclovir twice daily, 12 weeks, vs placebo

SMILES: CC(C)[C@H](N)C(=O)OCCOCn1cnc2c(=O)[nH]c(N)nc21 [valacyclovir]
- percentage of source partners with HSV-2 shedding in the genital tract (FIG. 1) ([1]; 500 mg valacyclovir daily, N=39 vs placebo N=50, PCR detectable shedding): decreased at a much quicker rate than those taking the placebo
- risk of transmission of HSV-2 ([1]; 500 mg valacyclovir once daily, 8 months, source partners vs placebo): reduced the risk of transmission of HSV-2
- HSV PCR detectability rate median [2]: 5% of days
- reduction of HIV-1 viral load in plasma, on average [3]: 0.37 log10 copies/mL
